Source: patent US20070099912A1, “Pyrrolo[2,3-F] and [3,2-F]Isoquinolinone derivatives as 5-hydroxytryptamine-6 ligands” (Wyeth, priority 2005, published 2007)
Structures can show the parent of a compound that is named as a salt.

Key:
[1] = molecular target: human cloned 5-HT6 receptors (Homo sapiens, UniProt P50406)
Sequence of human cloned 5-HT6 receptors (P50406 whole entry): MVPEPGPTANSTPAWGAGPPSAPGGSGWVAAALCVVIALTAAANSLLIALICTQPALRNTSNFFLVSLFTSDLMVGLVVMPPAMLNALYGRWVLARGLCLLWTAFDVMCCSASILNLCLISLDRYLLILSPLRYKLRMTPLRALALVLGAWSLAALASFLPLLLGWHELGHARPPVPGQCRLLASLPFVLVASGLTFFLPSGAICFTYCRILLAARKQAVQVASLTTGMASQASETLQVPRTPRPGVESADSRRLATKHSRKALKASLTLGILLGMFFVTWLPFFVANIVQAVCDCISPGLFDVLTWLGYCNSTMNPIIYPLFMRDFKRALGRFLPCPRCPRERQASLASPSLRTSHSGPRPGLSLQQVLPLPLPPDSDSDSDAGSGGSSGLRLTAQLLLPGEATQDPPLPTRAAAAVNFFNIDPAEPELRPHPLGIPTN

melting point [°C] | Ki [1] [µM] | Structure (SMILES)
100 to 102 | – | CN(C)CCn1ccc2ccc3c(=O)n(Cc4ccccc4)ccc3c21 (as salt: hydrochloride) [Example 6, 7-Benzyl-1-[2-(dimethylamino)ethyl]-1.7-dihydro-6H-pyrrolo[2,3-f]isoquinolin-6-one hydrochloride]
153 to 154 | – | NCCn1ccc2ccc3c(=O)n(Cc4ccccc4)ccc3c21 (as salt: hydrochloride) [Example 7, 1-(2-Aminoethyl)-7-benzyl-1,7-dihydro-6H-pyrrolo[2,3-f]isoquinolin-6-one hydrochloride]
– | 0.388 | CN(C)CCn1ccc2ccc3c(=O)n(Cc4ccccc4)ccc3c21 [Example 6, 7-Benzyl-1-[2-(dimethylamino)ethyl]-1.7-dihydro-6H-pyrrolo[2,3-f]isoquinolin-6-one hydrochloride]
– | 0.18 | NCCn1ccc2ccc3c(=O)n(Cc4ccccc4)ccc3c21 [Example 7, 1-(2-Aminoethyl)-7-benzyl-1,7-dihydro-6H-pyrrolo[2,3-f]isoquinolin-6-one hydrochloride]
203 to 205 | 0.426 | NCCn1ccc2c3ccn(Cc4ccc(F)cc4)c(=O)c3ccc21 [Example 13, 3-(2-aminoethyl)-7-(4-fluorobenzyl)-3,7-dihydro-6H-pyrrolo[3,2-f]isoquinolin-6-one]
221 to 223 | 0.379 | CN(C)CCn1ccc2c3ccn(Cc4ccc(F)cc4)c(=O)c3ccc21 [Example 14, 3-[2-(dimethylamino)ethyl]-7-(4-fluorobenzyl)-3,7-dihydro-6H-pyrrolo[3,2-f]isoquinolin-6-one]
229 to 231 | 0.507 | O=c1c2ccc3c(ccn3CCN3CCCC3)c2ccn1Cc1ccc(F)cc1 [Example 15, 7-(4-fluorobenzyl)-3-(2-pyrrolidin-1-ylethyl)-3,7-dihydro-6H-pyrrolo[3,2-f]isoquinolin-6-one]
49 to 51 | – | CN(C)CCCn1ccc2c3ccn(Cc4ccc(F)cc4)c(=O)c3ccc21 [Example 16, 3-[3-(dimethylamino)propyl]-7-(4-fluorobenzyl)-3,7-dihydro-6H-pyrrolo[3,2-f]isoquinolin-6-one]
